Experimental data taken from the NIST ThermoML archive (doi:10.1016/j.jct.2010.09.009).
± gives the expanded uncertainty stated by the source.

Test: xn = mol fraction of the nth substance listed
Conditions: 101 kPa, Liquid, Vibrating tube method, x2 = 0

Compound: O [water] + CCC[N+](CCC)(CCC)CCC.[Br-]
- mass density (278.15 K): 999.97 ± 0.05 kg/m3
- mass density (283.15 K): 999.7 ± 0.05 kg/m3
